Laboratory results as given in patent US20240025856A1, “1,2,3,4-TETRAHYDROQUINOLINE DERIVATIVES AS INHIBITORS OF THE YAP/TAZ-TEAD ACTIVATION FOR TREATING CANCER” (KATHOLIEKE UNIVERSITEIT LEUVEN, priority 2020, published 2024).

tested on: YAP/TAZ-TEAD transcription; test: Reporter gene assay for measuring the inhibition of YAP/TAZ-TEAD transcription (TEAD-responsive element luciferase reporter in Hek293T cells); format: cell-based; conditions: Homo sapiens, HEK-293T, 24 h, Hek293T cells transiently transfected with TEAD-responsive element luciferase reporter; 24 hours incubation
How it was run: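 Hek293T cells transiently transfected with a TEAD-responsive element luciferase reporter, plated onto pre-diluted compounds and incubated 24 h at 37 °C/5% CO2. Luminescence read after SteadyLite addition; % inhibition from RLU relative to vehicle (0%) and a positive control inhibitor (100%), giving IC50.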

Structure (SMILES) | IC50
C=CC(=O)NCC1Cc2ccccc2N(c2ccc(-c3ccccc3)cc2)C1 (centres unmarked) [compound 092, N-((1-([1,1′-biphenyl]-4-yl)-1,2,3,4-tetrahydroquinolin-3-yl)methyl)acrylamide] | < 1000 nM
C=CC(=O)NCC1Cc2ccccc2N(c2cccc(-c3ccccc3)c2)C1 (centres unmarked) [compound 093, N-((1-([1,1′-biphenyl]-3-yl)-1,2,3,4-tetrahydroquinolin-3-yl)methyl)acrylamide] | > 20000 nM
C=CC(=O)NCC1Cc2ccccc2N(c2ccnc(C(F)(F)F)c2)C1 (centres unmarked) [compound 096, N-((1-(2-(trifluoromethyl)pyridin-4-yl)-1,2,3,4-tetrahydroquinolin-3-yl)methyl)acrylamide] | < 1000 nM
C=CC(=O)NCC1Cc2ccccc2N(c2ccc(C(=O)NC)cc2)C1 (centres unmarked) [compound 100, 4-(3-(acrylamidomethyl)-3,4-dihydroquinolin-1(2H)-yl)—N-methylbenzamide] | > 20000 nM
C=CC(=O)NCC1Cc2ccccc2N(c2ccc(F)cc2F)C1 (centres unmarked) [compound 102, N-((1-(2,4-difluorophenyl)-1,2,3,4-tetrahydroquinolin-3-yl)methyl)acrylamide] | < 1000 nM
C=CC(=O)NCC1Cc2ccccc2N(c2ccc3cc[nH]c3c2)C1 (centres unmarked) [compound 104, N-((1-(1H-indol-6-yl)-1,2,3,4-tetrahydroquinolin-3-yl)methyl)acrylamide] | < 1000 nM
C=CC(=O)NCC1Cc2ccccc2N(c2ccc(SC(F)(F)F)cc2)C1 (centres unmarked) [compound 114, N-((1-(4-((trifluoromethyl)thio)phenyl)-1,2,3,4-tetrahydroquinolin-3-yl)methyl)acrylamide] | < 1000 nM
C=CC(=O)NCC1Cc2ccccc2N(c2cnc(C(F)(F)F)nc2)C1 (centres unmarked) [compound 115, N-((1-(2-(trifluoromethyl)pyrimidin-5-yl)-1,2,3,4-tetrahydroquinolin-3-yl)methyl)acrylamide] | < 1000 nM
C=CC(=O)NCC1Cc2ccccc2N(c2ccc(C)cc2C)C1 (centres unmarked) [compound 116, N-((1-(2,4-dimethylphenyl)-1,2,3,4-tetrahydroquinolin-3-yl)methyl)acrylamide] | < 1000 nM
C=CC(=O)NCC1Cc2ccccc2N(C2CCCCC2)C1 (centres unmarked) [compound 118, N-((1-cyclohexyl-1,2,3,4-tetrahydroquinolin-3-yl)methyl)acrylamide] | < 1000 nM
C#CC(=O)NCC1Cc2ccccc2N(c2ccc(C(F)(F)F)cc2)C1 (centres unmarked) [compound 119, N-((1-(4-(trifluoromethyl)phenyl)-1,2,3,4-tetrahydroquinolin-3-yl)methyl)propiolamide] | < 1000 nM
CS(=O)(=O)NCC1Cc2ccccc2N(c2ccc(C(F)(F)F)cc2)C1 (centres unmarked) [compound 121, N-((1-(4-(trifluoromethyl)phenyl)-1,2,3,4-tetrahydroquinolin-3-yl)methyl)methanesulfonamide] | < 1000 nM
O=S1(=O)CCN1CC1Cc2ccccc2N(c2ccc(C(F)(F)F)cc2)C1 (centres unmarked) [compound 123, 2-((1-(4-(trifluoromethyl)phenyl)-1,2,3,4-tetrahydroquinolin-3-yl)methyl)-1,2-thiazetidine-1,1-dioxide] | < 1000 nM
N#CCC(=O)NCC1Cc2ccccc2N(c2ccc(C(F)(F)F)cc2)C1 (centres unmarked) [compound 125, 2-cyano-N-((1-(4-(trifluoromethyl)phenyl)-1,2,3,4-tetrahydroquinolin-3-yl)methyl)acetamide] | < 1000 nM
CCC(=O)NCC1Cc2c(Cc3ccccc3)cccc2N(c2ccc(C(F)(F)F)cc2)C1 (centres unmarked) [compound 130, N-((5-benzyl-1-(4-(trifluoromethyl)phenyl)-1,2,3,4-tetrahydroquinolin-3-yl)methyl)propionamide] | < 1000 nM
C=CC(=O)N(C)C1Cc2ccccc2N(c2ccc(C(F)(F)F)cc2)C1 (centres unmarked) [compound 132, N-methyl-N-(1-(4-(trifluoromethyl)phenyl)-1,2,3,4-tetrahydroquinolin-3-yl)acrylamide] | < 1000 nM
C=CC(=O)N(CCOC)CC1Cc2ccccc2N(c2ccc(C(F)(F)F)cc2)C1 (centres unmarked) [compound 135, N-(2-methoxyethyl)-N-((1-(4-(trifluoromethyl)phenyl)-1,2,3,4-tetrahydroquinolin-3-yl)methyl)acrylamide] | < 1000 nM
C=CC(=O)NC1Cc2c(C(N)=O)cccc2N(c2ccc(C(F)(F)F)cc2)C1 (centres unmarked) [compound 136, 3-acrylamido-1-(4-(trifluoromethyl)phenyl)-1,2,3,4-tetrahydroquinoline-5-carboxamide] | < 1000 nM

The remaining lines, values ahead:

IC50 | Structure (SMILES)
< 1000 nM | C=CC(=O)NCC1Cc2ccccc2N(c2ccc(C(F)(F)F)nc2)C1 (centres unmarked) [compound 094, N-((1-(6-(trifluoromethyl)pyridin-3-yl)-1,2,3,4-tetrahydroquinolin-3-yl)methyl)acrylamide]
< 1000 nM | C=CC(=O)NCC1Cc2ccccc2N(c2ccc(C(F)(F)F)cn2)C1 (centres unmarked) [compound 095]
< 1000 nM | C=CC(=O)NCC1Cc2ccccc2N(c2ccc(F)cc2)C1 (centres unmarked) [compound 097, N-((1-(4-fluorophenyl)-1,2,3,4-tetrahydroquinolin-3-yl)methyl)acrylamide]
< 1000 nM | CCC(=O)NCC1Cc2ccccc2N(c2ccc(C(F)(F)F)cc2)C1 (centres unmarked) [compound 098, N-((1-(4-(trifluoromethyl)phenyl)-1,2,3,4-tetrahydroquinolin-3-yl)methyl)propionamide]
1000 to 20000 nM | CC(C)=CC(=O)NCC1Cc2ccccc2N(c2ccc(C(F)(F)F)cc2)C1 (centres unmarked) [compound 099, 3-methyl-N-((1-(4-(trifluoromethyl)phenyl)-1,2,3,4-tetrahydroquinolin-3-yl)methyl)but-2-enamide]
< 1000 nM | C=CC(=O)NCC1Cc2ccccc2N(c2ccc(F)c(F)c2)C1 (centres unmarked) [compound 101, N-((1-(3,4-difluorophenyl)-1,2,3,4-tetrahydroquinolin-3-yl)methyl)acrylamide]
< 1000 nM | C=CC(=O)NCC1Cc2ccccc2N(c2ccc(C(F)F)cc2)C1 (centres unmarked) [compound 105, N-((1-(4-(difluoromethyl)phenyl)-1,2,3,4-tetrahydroquinolin-3-yl)methyl)acrylamide]
< 1000 nM | C=CC(=O)NCC1Cc2ccccc2N(c2ccc(OC(F)(F)F)cc2)C1 (centres unmarked) [compound 106, N-((1-(4-(trifluoromethoxy)phenyl)-1,2,3,4-tetrahydroquinolin-3-yl)methyl)acrylamide]
< 1000 nM | C=CC(=O)NCC1Cc2ccccc2N(c2ccc(OC(F)F)cc2)C1 (centres unmarked) [compound 107, N-((1-(4-(difluoromethoxy)phenyl)-1,2,3,4-tetrahydroquinolin-3-yl)methyl)acrylamide]
< 1000 nM | C=CC(=O)NCC1Cc2ccccc2N(c2cccc(F)c2)C1 (centres unmarked) [compound 108, N-((1-(3-fluorophenyl)-1,2,3,4-tetrahydroquinolin-3-yl)methyl)acrylamide]
< 1000 nM | C=CC(=O)NCC1Cc2ccccc2N(c2cccc(F)c2F)C1 (centres unmarked) [compound 109, N-((1-(2,3-difluorophenyl)-1,2,3,4-tetrahydroquinolin-3-yl)methyl)acrylamide]
< 1000 nM | C=CC(=O)NCC1Cc2ccccc2N(c2cc(F)ccc2F)C1 (centres unmarked) [compound 110, N-((1-(2,5-difluorophenyl)-1,2,3,4-tetrahydroquinolin-3-yl)methyl)acrylamide]
< 1000 nM | C=CC(=O)NCC1Cc2ccccc2N(c2cc(F)cc(F)c2)C1 (centres unmarked) [compound 111, N-((1-(3,5-difluorophenyl)-1,2,3,4-tetrahydroquinolin-3-yl)methyl)acrylamide]
< 1000 nM | C=CC(=O)NCC1Cc2ccccc2N(c2ccc(C(F)(F)F)c(F)c2)C1 (centres unmarked) [compound 112, N-((1-(3-fluoro-4-(trifluoromethyl)phenyl)-1,2,3,4-tetrahydroquinolin-3-yl)methyl)acrylamide]
< 1000 nM | C=CC(=O)NCC1Cc2ccccc2N(c2ccc(S(F)(F)(F)(F)F)cc2)C1 (centres unmarked) [compound 117, N-((1-(4-(pentafluoro-λ^6-sulfaneyl)phenyl)-1,2,3,4-tetrahydroquinolin-3-yl)methyl)acrylamide]
< 1000 nM | CN(C)C/C=C/C(=O)NCC1Cc2ccccc2N(c2ccc(C(F)(F)F)cc2)C1 (centres unmarked) [compound 120, (E)-4-(dimethylamino)-N-((1-(4-(trifluoromethyl)phenyl)-1,2,3,4-tetrahydroquinolin-3-yl)methyl)but-2-enamide]
< 1000 nM | C=CS(=O)(=O)NCC1Cc2ccccc2N(c2ccc(C(F)(F)F)cc2)C1 (centres unmarked) [compound 122, N-((1-(4-(trifluoromethyl)phenyl)-1,2,3,4-tetrahydroquinolin-3-yl)methyl)ethenesulfonamide]
1000 to 20000 nM | CNS(=O)(=O)CCNCC1Cc2ccccc2N(c2ccc(C(F)(F)F)cc2)C1 (centres unmarked) [compound 124, N-methyl-2-(((1-(4-(trifluoromethyl)phenyl)-1,2,3,4-tetrahydroquinolin-3-yl)methyl)amino)ethane-1-sulfonamide]
1000 to 20000 nM | N#CCCNCC1Cc2ccccc2N(c2ccc(C(F)(F)F)cc2)C1 (centres unmarked) [compound 126, 3-(((1-(4-(trifluoromethyl)phenyl)-1,2,3,4-tetrahydroquinolin-3-yl)methyl)amino)propanenitrile]
< 1000 nM | N#CCNCC1Cc2ccccc2N(c2ccc(C(F)(F)F)cc2)C1 (centres unmarked) [compound 127, 2-(((1-(4-(trifluoromethyl)phenyl)-1,2,3,4-tetrahydroquinolin-3-yl)methyl)amino)acetonitrile]
< 1000 nM | C=CC(=O)NCC1Cc2c(Cc3ccccc3)cccc2N(c2ccc(C(F)(F)F)cc2)C1 (centres unmarked) [compound 129, N-((5-benzyl-1-(4-(trifluoromethyl)phenyl)-1,2,3,4-tetrahydroquinolin-3-yl)methyl)acrylamide]
< 1000 nM | C=CC(=O)NCC1Cc2cc(OC)ccc2N(c2ccc(C(F)(F)F)cc2)C1 (centres unmarked) [compound 131, N-((6-methoxy-1-(4-(trifluoromethyl)phenyl)-1,2,3,4-tetrahydroquinolin-3-yl)methyl)acrylamide]
1000 to 20000 nM | C=CC(=O)N(CCOC)C1Cc2ccccc2N(c2ccc(C(F)(F)F)cc2)C1 (centres unmarked) [compound 133, N-(2-methoxyethyl)-N-(1-(4-(trifluoromethyl)phenyl)-1,2,3,4-tetrahydroquinolin-3-yl)acrylamide]
